{
  "source": "paper PMC8887546",
  "about": "“Design and Synthesis of Brain Penetrant Glycopeptide Analogues of PACAP With Neuroprotective Potential for Traumatic Brain Injury and Parkinsonism” (Frontiers in drug discovery, 2022)",
  "key": {"[1]": {"system": "Sprague Dawley rats, 6-OHDA lesion", "test": "Unbiased stereology of TH-positive neurons in SNc (study 1)", "type": "in vivo, rat", "conditions": "mild lesion (25%), 15 mg/kg i.p. 6 h prior to and 24 h post-lesion", "description": "Rats were treated with 2LS98Lac or saline (vehicle) as outlined in the Schemes in Figures 9A,B via intraperitoneal (i.p.) injection (15 mg/kg). All animals were made hemi-parkinsonian with unilateral, striatal 6-hydroxydopamine (Sigma Aldrich, St. Louis, MO) injections. After surgery, behavioral assessments were done at 2- and 4-weeks post-surgery. 24 h after the last test animals were either euthanized and whole brains were harvested for future biochemical analysis or perfused and brains collected for immunohistochemistry and stereological assessment of tyrosine hydroxylase-positive (TH+) cells remaining in the SNc. In study 1: n = 16 each group were included, and all underwent the behavioral analysis: n = 16, and for the stereology in the SNc, n = 8 each group was used. In study 2: n = 23 each group were included. […]\nStereological probes were applied using a Zeiss Imager M2 microscope (Carl Zeiss, Jena, Germany) equipped with StereoInvestigator software (MBF Bioscience, VT, United States) according to previously published methods ([Corenblum et al., 2015]; [Anandhan et al., 2021]). Using the optical fractionator probe, cells were counted under the ×63 oil immersion objective by a blinded observer. TH+ cells were counted in sections 480 μm apart using a grid size of 170 × 100 μm and counting frame size of 75 × 75 μm. […]"}, "[2]": {"system": "C57BL/6 mice, diffuse TBI", "test": "Neurological severity score after TBI", "type": "in vivo, mouse", "conditions": "10 mg/kg i.p. 30 min prior to TBI, 2, 5 and 7 DPI", "description": "30 min prior to TBI or sham injury, mice were randomly assigned to a therapeutic group and received an intraperitoneal injection of 2LS80Mel (10 mg/kg) or sterile saline (0.25 ml). Groups were as follows: TBI-2LS80Mel n = 17; TBI-vehicle n = 17; sham n = 22 (vehicle n = 11, 2LS80Mel n = 11).\nFor injury induction 24 h post-surgery, mice were re-anesthetized with 5% isoflurane delivered for 3 min. The cap was removed from the injury-hub assembly and the dura was visually inspected through the hub to ensure it was intact with no debris. […] Injured mice were monitored for presence of a forearm fencing response and righting reflex times were recorded as indicators of injury severity ([Hosseini and Lifshitz, 2009]). […] After spontaneously righting, mice were placed in a heated recovery cage and monitored until they were ambulatory (approximately 5–15 min) before being returned to their piezoelectric sleep cage (see below). […]\nNeurological impairments were assessed at 2, 5, and 7 DPI using an 8-point NSS paradigm adapted from those previously used in experimental models of TBI and previously reported by our lab ([Chen et al., 1996]; [Semple et al., 2010]; [Pleasant et al., 2011]; [Ziebell et al., 2011]; [Rowe et al., 2018]; [Rowe et al., 2019]). […]"}},
  "data": [
    {"molecule": "[2H]C([2H])([2H])C([2H])(C([2H])([2H])[2H])[C@]([2H])(NC(=O)[C@H](C)NC(=O)[C@H](C)NC(=O)[C@H](CC(C)C)NC(=O)[C@H](Cc1ccc(O)cc1)NC(=O)[C@H](CCCCN)NC(=O)[C@H](CCCCN)NC(=O)[C@@]([2H])(NC(=O)[C@H](C)NC(=O)[C@H](CC(C)C)NC(=O)[C@H](CCC(N)=O)NC(=O)[C@H](CCCCN)NC(=O)[C@H](CCCNC(=N)N)NC(=O)[C@H](Cc1ccc(O)cc1)NC(=O)[C@H](CCCNC(=N)N)NC(=O)[C@H](CO)NC(=O)[C@H](Cc1ccc(O)cc1)NC(=O)[C@H](CO)NC(=O)[C@H](CC(=O)O)NC(=O)[C@@H](NC(=O)[C@H](Cc1ccccc1)NC(=O)[C@@H](NC(=O)CNC(=O)[C@H](CC(=O)O)NC(=O)[C@H](CO)NC(=O)[C@@H](N)Cc1c[nH]cn1)[C@@H](C)CC)[C@@H](C)O)C([2H])(C([2H])([2H])[2H])C([2H])([2H])[2H])C(=O)N[C@@H](CC(C)C)C(=O)N[C@@H](CO[C@@H]1O[C@H](CO)[C@@H](O[C@@H]2O[C@H](CO)[C@H](O)[C@H](O)[C@H]2O)[C@H](O)[C@H]1O)C(N)=O", "note": "[Compound 2LS98Lac]", "values": [
      {"measurement": "TH-positive neurons in SNc, lesioned vs intact side", "setting": "[1]", "value": "neuronal cell death was attenuated"}
    ]},
    {"molecule": "CC[C@H](C)[C@H](NC(=O)CNC(=O)[C@H](CC(=O)O)NC(=O)[C@H](CO)NC(=O)[C@@H](N)Cc1c[nH]cn1)C(=O)N[C@@H](Cc1ccccc1)C(=O)N[C@H](C(=O)N[C@@H](CC(=O)O)C(=O)N[C@@H](CO)C(=O)N[C@@H](Cc1ccc(O)cc1)C(=O)N[C@@H](CO)C(=O)N[C@@H](CCCNC(=N)N)C(=O)N[C@@H](Cc1ccc(O)cc1)C(=O)N[C@@H](CCCNC(=N)N)C(=O)N[C@@H](CCCCN)C(=O)N[C@@H](CCC(N)=O)C(=O)N[C@@H](CC(C)C)C(=O)N[C@@H](C)C(=O)N[C@H](C(=O)N[C@@H](CCCCN)C(=O)N[C@@H](CCCCN)C(=O)N[C@@H](Cc1ccc(O)cc1)C(=O)N[C@@H](CC(C)C)C(=O)N[C@@H](C)C(=O)N[C@@H](C)C(=O)N[C@H](C(=O)N[C@@H](CC(C)C)C(=O)N[C@@H](CO[C@@H]1O[C@H](CO[C@H]2O[C@H](CO)[C@H](O)[C@H](O)[C@H]2O)[C@@H](O)[C@H](O)[C@H]1O)C(N)=O)C(C)C)C(C)C)[C@@H](C)O", "note": "[Compound 2LS80Mel]", "values": [
      {"measurement": "Neurological severity score (sensorimotor deficits)", "setting": "[2]", "value": "deficits were prevented"}
    ]}
  ]
}
